Patent US10689354B2, “Aminoazole derivative” (Teijin Pharma Limited, priority 2015, dated 2020)

What was measured:
human androgen receptor = molecular target: T1, human androgen receptor (Homo sapiens, UniProt P10275); experiment: Reporter assay of an androgen receptor responsive sequence (luciferase, transiently transfected HEK293 cells); assay type: cell-based; settings: 24 hours incubation, relative to activity of 100 nM DHT, read-out: AR transcriptive activity (pEC50) (converted)
T1 construct: expressed in transfected cells; host or cells: HEK293
T1 sequence (P10275 1-920): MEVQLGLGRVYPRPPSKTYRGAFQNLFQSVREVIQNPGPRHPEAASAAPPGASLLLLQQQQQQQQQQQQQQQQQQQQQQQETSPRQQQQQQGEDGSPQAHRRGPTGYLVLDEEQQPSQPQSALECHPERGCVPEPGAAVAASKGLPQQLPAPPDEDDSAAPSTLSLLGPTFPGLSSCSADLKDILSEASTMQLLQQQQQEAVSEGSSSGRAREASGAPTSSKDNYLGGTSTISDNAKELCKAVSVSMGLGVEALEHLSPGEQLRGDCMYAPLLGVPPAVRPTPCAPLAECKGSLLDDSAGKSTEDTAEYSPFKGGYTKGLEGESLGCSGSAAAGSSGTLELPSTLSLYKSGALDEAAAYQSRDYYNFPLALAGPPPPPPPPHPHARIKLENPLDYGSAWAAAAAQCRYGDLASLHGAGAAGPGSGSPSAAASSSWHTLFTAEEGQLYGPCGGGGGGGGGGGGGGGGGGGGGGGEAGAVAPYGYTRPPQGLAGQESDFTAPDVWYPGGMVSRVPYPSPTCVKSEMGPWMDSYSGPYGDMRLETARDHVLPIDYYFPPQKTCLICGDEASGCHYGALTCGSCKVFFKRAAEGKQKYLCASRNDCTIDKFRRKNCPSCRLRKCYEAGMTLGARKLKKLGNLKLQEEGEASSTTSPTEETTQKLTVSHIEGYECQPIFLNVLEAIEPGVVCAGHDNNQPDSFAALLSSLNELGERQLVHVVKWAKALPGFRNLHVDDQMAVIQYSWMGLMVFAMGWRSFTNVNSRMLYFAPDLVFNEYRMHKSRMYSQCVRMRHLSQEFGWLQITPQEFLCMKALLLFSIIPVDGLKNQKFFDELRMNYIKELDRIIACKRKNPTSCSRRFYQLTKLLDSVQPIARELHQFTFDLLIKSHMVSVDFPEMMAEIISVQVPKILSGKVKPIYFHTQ
Method in brief: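 HEK293 cells transiently transfected for 3 h with ARE-firefly luciferase, full-length human AR and TK-Renilla plasmids, then exposed to compound for 24 h at 37 °C in 5% charcoal-treated FBS/DMEM. Dual-Glo luminescence read; pEC50 from 4-parameter fit relative to 100 nM DHT.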

[1] = molecular target: T2, androgen receptor (AR-LBD) (Rattus norvegicus, UniProt P15207); experiment: Evaluation of androgen receptor affinity (PolarScreen Androgen Receptor Competitor Assay Kit, Red; fluorescence polarization); settings: 22° C. for 5 hours, relative to binding rate of 1 μM DHT, read-out: AR affinity (pEC50) (converted)
T2 construct: 5 μL of 2×AR-LBD/Fluoromone AL Red Complex contained in the kit; purchased Invitrogen
T2 sequence (P15207 651-882 limits assumed): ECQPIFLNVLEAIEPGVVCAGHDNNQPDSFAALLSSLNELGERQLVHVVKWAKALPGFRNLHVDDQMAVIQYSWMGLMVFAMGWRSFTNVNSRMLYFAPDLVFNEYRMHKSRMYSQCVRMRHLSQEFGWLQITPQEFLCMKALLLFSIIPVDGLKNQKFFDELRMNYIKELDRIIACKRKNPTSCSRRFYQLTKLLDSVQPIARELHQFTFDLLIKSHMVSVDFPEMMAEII
Method in brief: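 Fluorescence polarization competition assay: compound was incubated in duplicate with the kit's AR-LBD/Fluoromone AL Red complex for 5 h at 22 °C. Binding was expressed relative to 1 μM DHT, and pEC50 was derived by 4-parameter fit.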

| Structure (SMILES) | EC50 (human androgen receptor) [nM] | EC50 [1] [nM] |
| --- | --- | --- |
| CCc1oc(N(Cc2cccc(Cl)c2)c2ccc(C#N)cc2)nc1C(=O)NS(C)(=O)=O [Compound 631, 2-[N-[(3-chlorophenyl)methyl]-4-cyano-anilino]-5-ethyl-N-methylsulfonyl-oxazole-4-carboxamide] | 794 | 39.8 |
| Cc1sc(N(Cc2ccc(F)cc2)[C@H]2C[C@@H]2c2ccccc2)nc1C(=O)NS(C)(=O)=O (racemic) [Compound 149, 2-[(4-fluorophenyl)methyl-(trans-2-phenylcyclopropyl)amino]-5-methyl-N-methylsulfonyl-thiazole-4-carboxamide] | 1000 | 158 |
| Cc1sc(N(CC2CCN(C)CC2)c2ccc(C#N)cc2)nc1C(=O)NS(C)(=O)=O [Compound 351, 2-[4-cyano-N-[(1-methyl-4-piperidyl)methyl]anilino]-5-methyl-N-methylsulfonyl-thiazole-4-carboxamide] | > 10000 | > 2000 |
| Cc1sc(N(Cc2ccc(OC(F)(F)F)cc2F)c2ccc(C#N)cc2)nc1C(=O)NS(C)(=O)=O [Example 178, 2-[4-cyano-N-[[2-fluoro-4-(trifluoromethoxy)phenyl]methyl]anilino]-5-methyl-N-methylsulfonyl-thiazole-4-carboxamide] | 501 | 39.8 |
| Cc1sc(N(Cc2ccccc2)c2ccc(C#N)cc2)nc1C(=O)NS(=O)(=O)Cc1cccc(Cl)c1 [Compound 386, 2-(N-benzyl-4-cyano-anilino)-N-[(3-chlorophenyl)methylsulfonyl]-5-methyl-thiazole-4-carboxamide] | > 10000 | 126 |
| Cc1sc(N(Cc2cnc(-c3ccccc3F)s2)c2ccc(C#N)cc2)nc1C(=O)NS(C)(=O)=O [Compound 495, 2-[4-cyano-N-[[2-(2-fluorophenyl)thiazol-5-yl]methyl]anilino]-5-methyl-N-methylsulfonyl-thiazole-4-carboxamide] | > 10000 | 39.8 |
| Cc1oc(N(CCc2ccc(Cl)cc2)Cc2ccc(Cl)cn2)nc1C(=O)NS(C)(=O)=O [Compound 549, 2-[2-(4-chlorophenyl)ethyl-[(5-chloro-2-pyridyl)methyl]amino]-5-methyl-N-methylsulfonyl-oxazole-4-carboxamide] | 1260 | 63.1 |
| Cc1sc(N(Cc2cnc(C(F)(F)F)cn2)c2ccc(C#N)cc2)nc1C(=O)NS(C)(=O)=O [Compound 537, 2-[4-cyano-N-[[5-(trifluoromethyl)pyrazin-2-yl]methyl]anilino]-5-methyl-N-methylsulfonyl-thiazole-4-carboxamide] | 631 | 316 |
| CCc1oc(N(Cc2ccc(Br)c(Cl)c2)c2ccc(C#N)cc2)nc1C(=O)NS(C)(=O)=O [Compound 650, 2-[N-[(4-bromo-3-chloro-phenyl)methyl]-4-cyano-anilino]-5-ethyl-N-methylsulfonyl-oxazole-4-carboxamide] | 200 | 31.6 |
| Cc1sc(N(CCc2ccc(C#N)cc2)Cc2ccc(Cl)cc2)nc1C(=O)NS(=O)(=O)C1CC1 [Compound 714, 2-[(4-chlorophenyl)methyl-[2-(4-cyanophenyl)ethyl]amino]-N-cyclopropylsulfonyl-5-methyl-thiazole-4-carboxamide] | 1260 | 79.4 |
| COCCCS(=O)(=O)NC(=O)c1nc(N(Cc2ccc(Cl)c(Cl)c2)c2ccc(C#N)cc2)sc1C [Example 190, 2-[4-cyano-N-[(3,4-dichlorophenyl)methyl]anilino]-N-(3-methoxypropylsulfonyl)-5-methyl-thiazole-4-carboxamide] | 63.1 | 15.8 |
| COCCCS(=O)(=O)NC(=O)c1nc(N(Cc2ccc(Cl)cc2OC(F)F)c2ccc(C#N)cc2)sc1C [Example 194, 2-[N-[[4-chloro-2-(difluoromethoxy)phenyl]methyl]-4-cyano-anilino]-N-(3-methoxypropylsulfonyl)-5-methyl-thiazole-4-carboxamide] | 2510 | 63.1 |
| CS(=O)(=O)NC(=O)c1nc(N(Cc2ccccc2Cl)c2ccc(C#N)cc2)sc1Br [Example 240, 5-bromo-2-[N-[(2-chlorophenyl)methyl]-4-cyano-anilino]-N-methylsulfonyl-thiazole-4-carboxamide] | 200 | 79.4 |
| Cc1sc(N(Cc2ccccc2)c2ccc(C#N)cc2)nc1C(=O)NS(=O)(=O)CCc1ccccc1 [Compound 391, 2-(N-benzyl-4-cyano-anilino)-5-methyl-N-(2-phenylethylsulfonyl)thiazole-4-carboxamide] | > 10000 | 79.4 |
| Cc1sc(N(CCc2cccnc2)Cc2ccc(Cl)cc2)nc1C(=O)NS(C)(=O)=O [Compound 488, 2-[(4-chlorophenyl)methyl-[2-(3-pyridyl)ethyl]amino]-5-methyl-N-methylsulfonyl-thiazole-4-carboxamide] | > 10000 | > 2000 |
| Cc1oc(N(Cc2ccc(Cl)cc2)c2ccc(C#N)cc2)nc1C(=O)NS(=O)(=O)C1CC1 [Compound 628, 2-[N-[(4-chlorophenyl)methyl]-4-cyano-anilino]-N-cyclopropylsulfonyl-5-methyl-oxazole-4-carboxamide] | > 10000 | 200 |
| Cc1sc(N(Cc2ccccc2)c2ccc(C(F)(F)F)cc2)nc1C(=O)NS(C)(=O)=O [Compound 341, 2-[N-benzyl-4-(trifluoromethyl)anilino]-5-methyl-N-methylsulfonyl-thiazole-4-carboxamide] | 1260 | 63.1 |
| CS(=O)(=O)NC(=O)c1nc(N(Cc2cccc(F)c2)c2ccc(C#N)cc2)sc1Cl [Example 258, 5-chloro-2-[4-cyano-N-[(3-fluorophenyl)methyl]anilino]-N-methylsulfonyl-thiazole-4-carboxamide] | 100 | 63.1 |
| Cc1sc(N(CCC2CCCC2O)c2ccc(C#N)cc2)nc1C(=O)NS(C)(=O)=O (stereo not drawn) [Compound 406, 2-[4-cyano-N-[2-(2-hydroxycyclopentyl)ethyl]anilino]-5-methyl-N-methylsulfonyl-thiazole-4-carboxamide] | 2510 | 794 |
| Cc1sc(N(Cc2ccc(Br)cc2Cl)c2ccc(C#N)cc2)nc1C(=O)NS(C)(=O)=O [Example 183, 2-[N-[(4-bromo-2-chloro-phenyl)methyl]-4-cyano-anilino]-5-methyl-N-methylsulfonyl-thiazole-4-carboxamide] | 501 | 63.1 |
| COCCCS(=O)(=O)NC(=O)c1nc(N(Cc2ncc(Cl)cc2F)c2ccc(C#N)cc2)sc1C [Example 169, 2-[N-[(5-chloro-3-fluoro-2-pyridyl)methyl]-4-cyano-anilino]-N-(3-methoxypropylsulfonyl)-5-methyl-thiazole-4-carboxamide] | 501 | 200 |
| Cc1oc(N(Cc2cccc(OC(F)(F)F)c2)c2ccc(C#N)cc2)nc1C(=O)NS(C)(=O)=O [Compound 613, 2-[4-cyano-N-[[3-(trifluoromethoxy)phenyl]methyl]anilino]-5-methyl-N-methylsulfonyl-oxazole-4-carboxamide] | > 10000 | 25.1 |
| COCCCS(=O)(=O)NC(=O)c1nc(N(CCc2ccc(C#N)cc2)Cc2ccc(C(F)(F)F)nc2)oc1C [Compound 559, 2-[2-(4-cyanophenyl)ethyl-[[6-(trifluoromethyl)-3-pyridyl]methyl]amino]-N-(3-methoxypropylsulfonyl)-5-methyl-oxazole-4-carboxamide] | 7940 | 316 |
| Cc1sc(N(CCc2ccccc2O)c2ccc(C#N)cc2)nc1C(=O)NS(C)(=O)=O [Compound 379, 2-[4-cyano-N-[2-(2-hydroxyphenyl)ethyl]anilino]-5-methyl-N-methylsulfonyl-thiazole-4-carboxamide] | 251 | 25.1 |
